Key:
[1] = molecular target: T1, PDE4B: The catalytic domain of human PDE4B from S152-S528 (Homo sapiens, UniProt Q07343); experiment: PDE4 IC50 determination by Scintillation Proximity Assay, PDE4B; format: biochemical; conditions: second part of Table 2B (2-23 to 2-103), column 3; column is PDE4B in first part; read-out: IC 50 vs. indicated assay h TNFα
T1 construct: His6 (N); thrombin cleavage site (N); made in house; host or cells: E. coli
Outline: (§1)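 Enzyme was added to compound and [^3H]cAMP, then incubated 30 min at 30° (PDE4B 80 ng/ml; PDE4D 4 ng/ml). Product [^3H]AMP bound to SPA beads and was counted. IC50 was fitted by non-linear regression against DMSO and roflumilast controls.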

[2] = molecular target: T2, PDE4D (Homo sapiens, UniProt Q08499); experiment: PDE4 IC50 determination by Scintillation Proximity Assay, PDE4D; format: biochemical; conditions: second part of Table 2B (2-23 to 2-103), column 5; column is PDE4D in first part; read-out: IC 50 vs. indicated assay h TNFα
T2 construct: PDE4D: The catalytic domain of human PDE4B from S3 16-V692; His6 (N); thrombin cleavage site (N); made in house; host or cells: E. coli
T2 sequence (Q08499 380-756): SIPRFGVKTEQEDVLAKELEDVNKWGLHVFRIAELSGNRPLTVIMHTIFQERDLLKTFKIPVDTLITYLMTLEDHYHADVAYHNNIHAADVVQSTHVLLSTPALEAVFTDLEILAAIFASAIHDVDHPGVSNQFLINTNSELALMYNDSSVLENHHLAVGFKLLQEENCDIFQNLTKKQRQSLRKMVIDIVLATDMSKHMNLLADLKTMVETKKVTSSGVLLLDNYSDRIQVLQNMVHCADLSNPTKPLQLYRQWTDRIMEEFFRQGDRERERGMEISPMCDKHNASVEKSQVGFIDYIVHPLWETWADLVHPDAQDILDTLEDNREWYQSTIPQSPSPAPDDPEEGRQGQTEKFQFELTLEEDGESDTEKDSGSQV
Outline: as §1

T1 sequence (Q07343 with tags, fused parts or gaps): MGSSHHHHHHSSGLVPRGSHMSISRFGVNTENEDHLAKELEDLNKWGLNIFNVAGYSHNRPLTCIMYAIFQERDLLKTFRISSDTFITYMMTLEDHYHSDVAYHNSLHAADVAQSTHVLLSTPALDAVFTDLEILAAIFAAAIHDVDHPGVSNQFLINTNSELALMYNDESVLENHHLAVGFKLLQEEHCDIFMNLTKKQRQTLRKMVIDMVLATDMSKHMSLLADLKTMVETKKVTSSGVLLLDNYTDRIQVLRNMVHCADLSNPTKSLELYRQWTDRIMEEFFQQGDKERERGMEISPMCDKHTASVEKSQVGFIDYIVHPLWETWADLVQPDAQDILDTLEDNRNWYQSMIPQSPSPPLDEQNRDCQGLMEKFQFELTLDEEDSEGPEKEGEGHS

SMILES: Nc1nc(Nc2ccc(F)cc2)sc1C(=O)c1ccc(F)cc1 [Compound 2-28, [4-Amino-2-(4-fluoro-phenylamino)-thiazol-5-yl]-(4-fluoro-phenyl)-methanone]
- IC50 [1]: < 10 µM
- IC50 [2]: < 10 µM

SMILES: Nc1nc(Nc2ccccc2Cl)sc1C(=O)c1ccccc1 [Compound 2-29, [4-Amino-2-(2-chloro-phenylamino)-thiazol-5-yl]-phenyl-methanone]
- IC50 [1]: < 10 µM
- IC50 [2]: < 10 µM

SMILES: COc1ccc(C(=O)c2sc(Nc3ccccc3)nc2N)cc1OC [Compound 2-31, (4-Amino-2-phenylamino-thiazol-5-yl)-(3,4-dimethoxy-phenyl)-methanone]
- IC50 [1]: < 10 µM
- IC50 [2]: < 10 µM

SMILES: Nc1nc(Nc2cc(Cl)ccc2Cl)sc1C(=O)c1ccccc1 [Compound 2-32, [4-Amino-2-(2,5-dichloro-phenylamino)-thiazol-5-yl]-phenyl-methanone]
- IC50 [1]: < 10 µM
- IC50 [2]: < 10 µM

SMILES: Nc1nc(Nc2cccc(C(=O)O)c2)sc1C(=O)c1ccccc1 [Compound 2-36, 3-(4-Amino-5-benzoyl-thiazol-2-ylamino)-benzoic acid]
- IC50 [1]: < 10 µM
- IC50 [2]: < 10 µM

SMILES: COc1ccc(C(=O)c2sc(Nc3ccccc3)nc2N)cc1 [Compound 2-37, (4-Amino-2-phenylamino-thiazol-5-yl)-(4-methoxy-phenyl)-methanone]
- IC50 [1]: < 10 µM
- IC50 [2]: < 10 µM

SMILES: COc1ccc(Nc2nc(N)c(C(=O)c3ccccc3)s2)cc1 [Compound 2-39, [4-Amino-2-(4-methoxy-phenylamino)-thiazol-5-yl]-phenyl-methanone]
- IC50 [1]: < 10 µM
- IC50 [2]: < 10 µM

SMILES: Nc1nc(Nc2c(Cl)cccc2Cl)sc1C(=O)c1ccc(OC(F)F)cc1 [Compound 2-42, [4-Amino-2-(2,6-dichloro-phenylamino)-thiazol-5-yl]-(4-difluoromethoxy-phenyl)-methanone]
- IC50 [1]: < 10 µM
- IC50 [2]: < 10 µM

SMILES: Nc1nc(Nc2c(Cl)cc(Cl)cc2Cl)sc1C(=O)c1ccccc1 [Compound 2-43, [4-Amino-2-(2,4,6-trichloro-phenylamino)-thiazol-5-yl]-phenyl-methanone]
- IC50 [1]: < 10 µM
- IC50 [2]: > 10 µM

SMILES: N#Cc1cccc(Nc2nc(N)c(C(=O)c3ccc(Oc4ccccc4)cc3)s2)c1 [Compound 2-46, 3-[4-Amino-5-(4-phenoxy-benzoyl)-thiazol-2-ylamino]-benzonitrile]
- IC50 [1]: < 10 µM
- IC50 [2]: < 10 µM

SMILES: COc1ccc(C(=O)c2sc(Nc3cccc(C#N)c3)nc2N)cc1 [Compound 2-48, 3-[4-Amino-5-(4-methoxy-benzoyl)-thiazol-2-ylamino]-benzonitrile]
- IC50 [1]: < 10 µM
- IC50 [2]: < 10 µM

SMILES: COc1ccc(C(=O)c2sc(Nc3ccc(Oc4ccccc4)cc3)nc2N)cc1 [Compound 2-49, [4-Amino-2-(4-phenoxy-phenylamino)-thiazol-5-yl]-(4-methoxy-phenyl)-methanone]
- IC50 [1]: < 10 µM
- IC50 [2]: < 10 µM

SMILES: Nc1nc(Nc2ccccc2F)sc1C(=O)c1cccc(Cl)c1 [Compound 2-50, [4-Amino-2-(2-fluoro-phenylamino)-thiazol-5-yl]-(3-chloro-phenyl)-methanone]
- IC50 [1]: < 10 µM
- IC50 [2]: < 10 µM

SMILES: COc1ccc(Nc2nc(N)c(C(=O)c3cccc(Cl)c3)s2)cc1 [Compound 2-51, [4-Amino-2-(4-methoxy-phenylamino)-thiazol-5-yl]-(3-chloro-phenyl)-methanone]
- IC50 [1]: < 10 µM
- IC50 [2]: < 10 µM

SMILES: N#Cc1cccc(Nc2nc(N)c(C(=O)c3cccc(Cl)c3)s2)c1 [Compound 2-52, 3-[4-Amino-5-(3-chloro-benzoyl)-thiazol-2-ylamino]-benzonitrile]
- IC50 [1]: < 10 µM
- IC50 [2]: < 10 µM

SMILES: Nc1nc(Nc2ccc(Oc3ccccc3)cc2)sc1C(=O)c1cccc(Cl)c1 [Compound 2-53, [4-Amino-2-(4-phenoxy-phenylamino)-thiazol-5-yl]-(3-chloro-phenyl)-methanone]
- IC50 [1]: < 10 µM
- IC50 [2]: < 10 µM

SMILES: Nc1nc(Nc2ccccc2F)sc1C(=O)c1cccc(C(F)(F)F)c1 [Compound 2-54, [4-Amino-2-(2-fluoro-phenylamino)-thiazol-5-yl]-(3-trifluoromethyl-phenyl)-methanone]
- IC50 [1]: < 10 µM
- IC50 [2]: < 10 µM

SMILES: COc1ccc(Nc2nc(N)c(C(=O)c3cccc(C(F)(F)F)c3)s2)cc1 [Compound 2-55, [4-Amino-2-(4-methoxy-phenylamino)-thiazol-5-yl]-(3-trifluoromethyl-phenyl)-methanone]
- IC50 [1]: < 10 µM
- IC50 [2]: < 10 µM

SMILES: N#Cc1cccc(Nc2nc(N)c(C(=O)c3cccc(C(F)(F)F)c3)s2)c1 [Compound 2-56, 3-[4-Amino-5-(3-trifluoromethyl-benzoyl)-thiazol-2-ylamino]-benzonitrile]
- IC50 [1]: < 10 µM
- IC50 [2]: < 10 µM

SMILES: Nc1nc(Nc2ccc(Oc3ccccc3)cc2)sc1C(=O)c1cccc(C(F)(F)F)c1 [Compound 2-57, [4-Amino-2-(4-phenoxy-phenylamino)-thiazol-5-yl]-(3-trifluoromethyl-phenyl)-methanone]
- IC50 [1]: < 10 µM
- IC50 [2]: > 10 µM

SMILES: Nc1nc(Nc2ccccc2F)sc1C(=O)c1ccc(OC(F)F)cc1 [Compound 2-58, [4-Amino-2-(2-fluoro-phenylamino)-thiazol-5-yl]-(4-difluoromethoxy-phenyl)-methanone]
- IC50 [1]: < 10 µM
- IC50 [2]: < 10 µM

SMILES: COc1ccc(Nc2nc(N)c(C(=O)c3ccc(OC(F)F)cc3)s2)cc1 [Compound 2-59, [4-Amino-2-(4-methoxy-phenylamino)-thiazol-5-yl]-(4-difluoromethoxy-phenyl)-methanone]
- IC50 [1]: < 10 µM
- IC50 [2]: < 10 µM

SMILES: N#Cc1cccc(Nc2nc(N)c(C(=O)c3ccc(OC(F)F)cc3)s2)c1 [Compound 2-60, 3-[4-Amino-5-(4-difluoromethoxy-benzoyl)-thiazol-2-ylamino]-benzonitrile]
- IC50 [1]: < 10 µM
- IC50 [2]: > 10 µM

SMILES: COc1cccc(C(=O)c2sc(Nc3ccccc3F)nc2N)c1 [Compound 2-62, [4-Amino-2-(2-fluoro-phenylamino)-thiazol-5-yl]-(3-methoxy-phenyl)-methanone]
- IC50 [1]: < 10 µM
- IC50 [2]: < 10 µM

SMILES: COc1ccc(Nc2nc(N)c(C(=O)c3cccc(OC)c3)s2)cc1 [Compound 2-63, [4-Amino-2-(4-methoxy-phenylamino)-thiazol-5-yl]-(3-methoxy-phenyl)-methanone]
- IC50 [1]: < 10 µM
- IC50 [2]: < 10 µM

SMILES: COc1cccc(C(=O)c2sc(Nc3ccc(Oc4ccccc4)cc3)nc2N)c1 [Compound 2-65, [4-Amino-2-(4-phenoxy-phenylamino)-thiazol-5-yl]-(3-methoxy-phenyl)-methanone]
- IC50 [1]: < 10 µM
- IC50 [2]: < 10 µM

SMILES: Nc1nc(Nc2ccc(Oc3ccccc3)cc2)sc1C(=O)c1ccccc1Cl [Compound 2-66, [4-Amino-2-(4-phenoxy-phenylamino)-thiazol-5-yl]-(2-chloro-phenyl)-methanone]
- IC50 [1]: < 10 µM
- IC50 [2]: > 10 µM

SMILES: Nc1nc(NCc2ccccc2)sc1C(=O)c1ccccc1 [Compound 2-68, (4-Amino-2-benzylamino-thiazol-5-yl)-phenyl-methanone]
- IC50 [1]: < 10 µM
- IC50 [2]: < 10 µM

SMILES: COc1cccc(C(=O)c2sc(NC(C)C)nc2N)c1 [Compound 2-69, (4-Amino-2-isopropylamino-thiazol-5-yl)-(3-methoxy-phenyl)-methanone]
- IC50 [1]: < 10 µM
- IC50 [2]: > 10 µM

Source: patent US7585859B2, “PDE4B inhibitors and uses therefor” (Plexxikon, Inc., priority 2004, dated 2009)
